In brackets after ≈: the same amount, converted by molar mass.
What follows are compounds tested on PAO1 mutant MIN16_2, nalC(aa9∆4), pilQ(nt46∆1) (assay: MIC, Sensititre custom plate). Conditions: Pseudomonas aeruginosa, PAO1, read-out: MIC, Sensititre.
Format: cell-based
Description: (§1) Selection of resistant mutants was performed for minocycline with and without RW01 in three independent replicates for wild-type P. aeruginosa reference strain PAO1. Tubes containing Mueller-Hinton broth (MHB) were inoculated and incubated for 24 h at 37°C. Afterward, 1/100 dilution of each tube was incubated at 37°C in MHB to late-exponential growth phase, measured by spectrophotometry at OD600. […] A control plate without antibiotic was included as inoculum control. After overnight incubation, colony counting of each treatment was performed to analyze the generation of resistant population. The mutant prevention concentration (MPC) was defined as the lowest concentration of antibiotic yielding no growth of resistant mutants. Selected mutants were checked for susceptibility profiles by using a Sensititre custom plate (Thermo Fisher Scientific, Massachusetts, USA) for Gram-negative bacteria, following the manufacturer’s instructions.
`C[C@@H](O)[C@H]1C(=O)N2C(C(=O)O)=C(SCCN=CN)C[C@H]12` [Imipenem, imipenem] was tested, and the MIC was 2 µg/mL (≈ 6.68 µM).

What follows are compounds tested on PAO1 mutant MIN1_RW01_1, pmrB(Y98N) (assay: MIC, Sensititre custom plate). Conditions: Pseudomonas aeruginosa, PAO1, read-out: MIC, Sensititre.
Format: cell-based
Description: as §1
`C[C@@H](O)[C@H]1C(=O)N2C(C(=O)O)=C(SCCN=CN)C[C@H]12` [Imipenem, imipenem] was tested, and the MIC was 2 µg/mL (≈ 6.68 µM).

Each compound was assayed on P. aeruginosa PAO1, WT (assay: MIC, Sensititre custom plate). Conditions: Pseudomonas aeruginosa, PAO1, read-out: MIC, Sensititre.
Format: cell-based
Description: as §1
With `C[C@@H](O)[C@H]1C(=O)N2C(C(=O)O)=C(SCCN=CN)C[C@H]12` [Imipenem, imipenem] the MIC was 1 to 2 µg/mL (≈ 3.34 to 6.68 µM).

What follows are compounds tested on PAO1 mutant MIN4_RW01_4, pmrB(Y98N) (assay: MIC, Sensititre custom plate). Conditions: Pseudomonas aeruginosa, PAO1, read-out: MIC, Sensititre.
Format: cell-based
Description: as §1
For `C[C@@H](O)[C@H]1C(=O)N2C(C(=O)O)=C(SCCN=CN)C[C@H]12` [Imipenem, imipenem], the MIC was 4 µg/mL (≈ 13.4 µM).

These compounds were tested on PAO1 mutant MIN32_1, mexR(R63H), pilB(N349K), PA0646(V316G) (assay: MIC, Sensititre custom plate). Conditions: Pseudomonas aeruginosa, PAO1, read-out: MIC, Sensititre.
Format: cell-based
Description: as §1
For `C[C@@H](O)[C@H]1C(=O)N2C(C(=O)O)=C(SCCN=CN)C[C@H]12` [Imipenem, imipenem], the MIC was 2 µg/mL (≈ 6.68 µM).

Each compound was assayed on PAO1 mutant MIN4_RW01_3, pmrB(M292T) (assay: MIC, Sensititre custom plate). Conditions: Pseudomonas aeruginosa, PAO1, read-out: MIC, Sensititre.
Format: cell-based
Description: as §1
`C[C@@H](O)[C@H]1C(=O)N2C(C(=O)O)=C(SCCN=CN)C[C@H]12` [Imipenem, imipenem] gave an MIC of 16 µg/mL (≈ 53.4 µM).

What follows are compounds tested on PAO1 mutant MIN2_RW01_3, parS(V152A) (assay: MIC, Sensititre custom plate). Conditions: Pseudomonas aeruginosa, PAO1, read-out: MIC, Sensititre.
Format: cell-based
Description: as §1
For `C[C@@H](O)[C@H]1C(=O)N2C(C(=O)O)=C(SCCN=CN)C[C@H]12` [Imipenem, imipenem], the MIC was 8 µg/mL (≈ 26.7 µM).

These compounds were tested on PAO1 mutant MIN16_3, nfxB(nt79∆14), pilB(N349K) (assay: MIC, Sensititre custom plate). Conditions: Pseudomonas aeruginosa, PAO1, read-out: MIC, Sensititre.
Format: cell-based
Description: as §1
`C[C@@H](O)[C@H]1C(=O)N2C(C(=O)O)=C(SCCN=CN)C[C@H]12` [Imipenem, imipenem] gave an MIC of 1 µg/mL (≈ 3.34 µM).

These compounds were tested on PAO1 mutant MIN1_RW01_3, pmrB(V215L) (assay: MIC, Sensititre custom plate). Conditions: Pseudomonas aeruginosa, PAO1, read-out: MIC, Sensititre.
Format: cell-based
Description: as §1
Compound `C[C@@H](O)[C@H]1C(=O)N2C(C(=O)O)=C(SCCN=CN)C[C@H]12` [Imipenem, imipenem] has an MIC of 2 µg/mL (≈ 6.68 µM).

The compounds below were run on PAO1 mutant MIN16_1, nalD(T43P) (assay: MIC, Sensititre custom plate). Conditions: Pseudomonas aeruginosa, PAO1, read-out: MIC, Sensititre.
Format: cell-based
Description: as §1
For `C[C@@H](O)[C@H]1C(=O)N2C(C(=O)O)=C(SCCN=CN)C[C@H]12` [Imipenem, imipenem], the MIC was 2 to 4 µg/mL (≈ 6.68 to 13.4 µM).

The compounds below were run on PAO1 mutant MIN1_RW01_2, mexR(G58E), pilB(G326D), hutC(Y181X) (assay: MIC, Sensititre custom plate). Conditions: Pseudomonas aeruginosa, PAO1, read-out: MIC, Sensititre.
Format: cell-based
Description: as §1
With `C[C@@H](O)[C@H]1C(=O)N2C(C(=O)O)=C(SCCN=CN)C[C@H]12` [Imipenem, imipenem] the MIC was 1 µg/mL (≈ 3.34 µM).

Each compound was assayed on PAO1 mutant MIN2_RW01_4, pmrB(M292T) (assay: MIC, Sensititre custom plate). Conditions: Pseudomonas aeruginosa, PAO1, read-out: MIC, Sensititre.
Format: cell-based
Description: as §1
In the case of `C[C@@H](O)[C@H]1C(=O)N2C(C(=O)O)=C(SCCN=CN)C[C@H]12` [Imipenem, imipenem], the MIC was 2 µg/mL (≈ 6.68 µM).

The compounds below were run on PAO1 mutant MIN2_RW01_1, pmrB(V215L) (assay: MIC, Sensititre custom plate). Conditions: Pseudomonas aeruginosa, PAO1, read-out: MIC, Sensititre.
Format: cell-based
Description: as §1
For `C[C@@H](O)[C@H]1C(=O)N2C(C(=O)O)=C(SCCN=CN)C[C@H]12` [Imipenem, imipenem], the MIC was 4 µg/mL (≈ 13.4 µM).

What follows are compounds tested on PAO1 mutant MIN4_RW01_1, pmrB(R429H) (assay: MIC, Sensititre custom plate). Conditions: Pseudomonas aeruginosa, PAO1, read-out: MIC, Sensititre.
Format: cell-based
Description: as §1
With `C[C@@H](O)[C@H]1C(=O)N2C(C(=O)O)=C(SCCN=CN)C[C@H]12` [Imipenem, imipenem] the MIC was 2 to 4 µg/mL (≈ 6.68 to 13.4 µM).

What follows are compounds tested on PAO1 mutant MIN2_RW01_2, pmrB(M292T) (assay: MIC, Sensititre custom plate). Conditions: Pseudomonas aeruginosa, PAO1, read-out: MIC, Sensititre.
Format: cell-based
Description: as §1
`C[C@@H](O)[C@H]1C(=O)N2C(C(=O)O)=C(SCCN=CN)C[C@H]12` [Imipenem, imipenem] showed an MIC of 2 µg/mL (≈ 6.68 µM).

What follows are compounds tested on PAO1 mutant MIN8_3, pilZ(nt18InsT) (assay: MIC, Sensititre custom plate). Conditions: Pseudomonas aeruginosa, PAO1, read-out: MIC, Sensititre.
Format: cell-based
Description: as §1
`C[C@@H](O)[C@H]1C(=O)N2C(C(=O)O)=C(SCCN=CN)C[C@H]12` [Imipenem, imipenem] gave an MIC of 2 µg/mL (≈ 6.68 µM).

Each compound was assayed on PAO1 mutant MIN16_4, nalC(T50P), pilM(Q62X) (assay: MIC, Sensititre custom plate). Conditions: Pseudomonas aeruginosa, PAO1, read-out: MIC, Sensititre.
Format: cell-based
Description: as §1
Compound `C[C@@H](O)[C@H]1C(=O)N2C(C(=O)O)=C(SCCN=CN)C[C@H]12` [Imipenem, imipenem] has an MIC of 2 µg/mL (≈ 6.68 µM).

These compounds were tested on PAO1 mutant MIN8_1, nalD(R3C), pilM(Q62X) (assay: MIC, Sensititre custom plate). Conditions: Pseudomonas aeruginosa, PAO1, read-out: MIC, Sensititre.
Format: cell-based
Description: as §1
`C[C@@H](O)[C@H]1C(=O)N2C(C(=O)O)=C(SCCN=CN)C[C@H]12` [Imipenem, imipenem] showed an MIC of 2 µg/mL (≈ 6.68 µM).

Each compound was assayed on PAO1 mutant MIN8_4, pilZ(nt18InsT) (assay: MIC, Sensititre custom plate). Conditions: Pseudomonas aeruginosa, PAO1, read-out: MIC, Sensititre.
Format: cell-based
Description: as §1
With `C[C@@H](O)[C@H]1C(=O)N2C(C(=O)O)=C(SCCN=CN)C[C@H]12` [Imipenem, imipenem] the MIC was 2 µg/mL (≈ 6.68 µM).

Each compound was assayed on PAO1 mutant MIN8_2, pilZ(nt18InsT) (assay: MIC, Sensititre custom plate). Conditions: Pseudomonas aeruginosa, PAO1, read-out: MIC, Sensititre.
Format: cell-based
Description: as §1
`C[C@@H](O)[C@H]1C(=O)N2C(C(=O)O)=C(SCCN=CN)C[C@H]12` [Imipenem, imipenem] was tested, and the MIC was 2 µg/mL (≈ 6.68 µM).

The compounds below were run on P. aeruginosa PAOΔoprM (assay: MIC, CLSI broth microdilution in BD Phoenix AST Broth). Conditions: Pseudomonas aeruginosa.
Format: cell-based, Pseudomonas aeruginosa
Description: (§2) MIC for RW01 was also tested.
(§3) FIC of RW01 (FICRW01)=MIC of RW01 in combination/MIC of RW01 alone,FIC of antibiotic (FICATB)=MIC of ATB in combination/MIC of ATB alone,FICI=FICRW01 +FICATB.
(§4) FICI was interpreted as follows: synergistic effect if FICI is ≤0.5; additive effect if 0.5 < FICI ≤ 1.0; indifferent effect if 1.0 < FICI ≤ 2.0; and finally, antagonistic effect if FICI is >2.0. The average FICI considering the antibiotic MIC (no growth in any of the replicates) at different concentrations of RW01 was calculated ([28]).
For `C[C@@H](O)[C@H]1C(=O)N2C(C(=O)O)=C(SCCN=CN)C[C@H]12` [Imipenem, imipenem], the MIC was 2 µg/mL.

What follows are compounds tested on P. aeruginosa PAO1 in the same assay as above. Conditions: Pseudomonas aeruginosa, PAO1, strain PAO1; agent alone; 37°C, 18–22 h; three biological replicates; read-out: MIC.
Format: cell-based, Pseudomonas aeruginosa
Description: as §2, §3, §4
With `C[C@@H](O)[C@H]1C(=O)N2C(C(=O)O)=C(SCCN=CN)C[C@H]12` [Imipenem, imipenem] the MIC was 2 µg/mL.

Each compound was assayed on P. aeruginosa 41B in the same assay as above. Conditions: Pseudomonas aeruginosa; strain 41B; agent alone; 37°C, 18–22 h; three biological replicates.
Format: cell-based, Pseudomonas aeruginosa
Description: as §2, §3, §4
Compound `C[C@@H](O)[C@H]1C(=O)N2C(C(=O)O)=C(SCCN=CN)C[C@H]12` [Imipenem, imipenem] has an MIC of 16 µg/mL.

What follows are compounds tested on P. aeruginosa PAOΔmexZ in the same assay as above. Conditions: Pseudomonas aeruginosa, strain PAOΔmexZ; agent alone; 37°C, 18–22 h; three biological replicates.
Format: cell-based, Pseudomonas aeruginosa
Description: as §2, §3, §4
In the case of `C[C@@H](O)[C@H]1C(=O)N2C(C(=O)O)=C(SCCN=CN)C[C@H]12` [Imipenem, imipenem], the MIC was 2 µg/mL.

The compounds below were run on P. aeruginosa 41A in the same assay as above. Conditions: Pseudomonas aeruginosa; strain 41A; agent alone; 37°C, 18–22 h; three biological replicates.
Format: cell-based, Pseudomonas aeruginosa
Description: as §2, §3, §4
`C[C@@H](O)[C@H]1C(=O)N2C(C(=O)O)=C(SCCN=CN)C[C@H]12` [Imipenem, imipenem] was tested, and the MIC was 2 µg/mL.

What follows are compounds tested on P. aeruginosa PAOUW in the same assay as above. Conditions: Pseudomonas aeruginosa, strain PAOUW; agent alone; 37°C, 18–22 h; three biological replicates; read-out: MIC.
Format: cell-based, Pseudomonas aeruginosa
Description: as §2, §3, §4
In the case of `C[C@@H](O)[C@H]1C(=O)N2C(C(=O)O)=C(SCCN=CN)C[C@H]12` [Imipenem, imipenem], the MIC was 8 µg/mL.

The compounds below were run on P. aeruginosa PAOΔmexR in the same assay as above. Conditions: Pseudomonas aeruginosa.
Format: cell-based, Pseudomonas aeruginosa
Description: as §2, §3, §4
Work on `C[C@@H](O)[C@H]1C(=O)N2C(C(=O)O)=C(SCCN=CN)C[C@H]12` [Imipenem, imipenem] yielded an MIC of 0.5 µg/mL.

The compounds below were run on P. aeruginosa PAOUW∆oprF in the same assay as above. Conditions: Pseudomonas aeruginosa, strain PAOUWΔoprF; agent alone; 37°C, 18–22 h; three biological replicates.
Format: cell-based, Pseudomonas aeruginosa
Description: as §2, §3, §4
`C[C@@H](O)[C@H]1C(=O)N2C(C(=O)O)=C(SCCN=CN)C[C@H]12` [Imipenem, imipenem] was tested, and the MIC was 2 µg/mL.

These compounds were tested on P. aeruginosa 125A in the same assay as above. Conditions: Pseudomonas aeruginosa; strain 125A; agent alone; 37°C, 18–22 h; three biological replicates.
Format: cell-based, Pseudomonas aeruginosa
Description: as §2, §3, §4
`C[C@@H](O)[C@H]1C(=O)N2C(C(=O)O)=C(SCCN=CN)C[C@H]12` [Imipenem, imipenem] showed an MIC of 2 µg/mL.

These compounds were tested on P. aeruginosa 125B in the same assay as above. Conditions: Pseudomonas aeruginosa; strain 125B; agent alone; 37°C, 18–22 h; three biological replicates.
Format: cell-based, Pseudomonas aeruginosa
Description: as §2, §3, §4
`C[C@@H](O)[C@H]1C(=O)N2C(C(=O)O)=C(SCCN=CN)C[C@H]12` [Imipenem, imipenem] gave an MIC of 2 µg/mL.

Each compound was assayed on PAO1 mutant MIN1_RW01_4, pmrB(F124L) (assay: microbe, parasite or virus in culture). Conditions: Pseudomonas aeruginosa, PAO1, read-out: MIC, Sensititre.
Format: cell-based
Description: as §1
In the case of `C[C@@H](O)[C@H]1C(=O)N2C(C(=O)O)=C(SCCN=CN)C[C@H]12` [Imipenem, imipenem], the MIC was 2 µg/mL (≈ 6.68 µM).

The compounds below were run on PAO1 mutant MIN4_RW01_2, pmrB(F124S) (assay: microbe, parasite or virus in culture). Conditions: Pseudomonas aeruginosa, PAO1, read-out: MIC, Sensititre.
Format: cell-based
Description: as §1
`C[C@@H](O)[C@H]1C(=O)N2C(C(=O)O)=C(SCCN=CN)C[C@H]12` [Imipenem, imipenem] was tested, and the MIC was 2 µg/mL (≈ 6.68 µM).
